Data from ChEMBL document CHEMBL4613244, “Absolute Configuration and Corrected NMR Assignment of 17-Hydroxycyclooctatin, a Fused 5-8-5 Tricyclic Diterpene” (J Nat Prod, 2020).
The source made the active and inactive calls. The calls are words filed in the database; no cut-off is given here.

What was measured:
Format in all cases: functional, cell-based
MCF7 [1] = experiment: Anti-estrogenic activity in human MCF7 cells assessed as reduction in 17beta-estradiol-induced cell viability at 100 nM after 24 hrs by MTT assay
MCF7 [2] = experiment: Antiproliferative activity against human MCF7 cells assessed as reduction in cell viability after 24 hrs by MTT assay; settings: MCF7, 24 h
MCF7 [3] = experiment: Anti-estrogenic activity in human MCF7 cells assessed as reduction in 17beta-estradiol-induced cell viability at 100 to 200 uM after 24 hrs by MTT assay

| SMILES | Activity (MCF7 [1]) | IC50 (MCF7 [2]) [µM] | Activity (MCF7 [3]) |
| --- | --- | --- | --- |
| C[C@]12CC[C@@H]3c4ccc(O)cc4C[C@@H](CCCCCCCCC[S+]([O-])CCCC(F)(F)C(F)(F)F)[C@H]3[C@@H]1CC[C@@H]2O (stereo partly drawn) | Active | – | – |
| C[C@H](CO)[C@H]1CC[C@]2(C)C[C@@H]3[C@H](CO)C[C@@H](O)[C@H]3[C@@](C)(O)C/C=C/12 | – | 567 | Active |
